Laboratory results taken from patent US6319897A, “Peptides which inhibit complement activation” (priority 1999, dated 2001).
Where a SMILES comes first, the peptide text is derived from it. Bridges are numbered along the chain shown (N, C = ends). The star is where a group is joined. Cam = NC(=O)C*

tested on: complement; assay: Complement-mediated hemolytic assay (pathway not stated); format: cell-based; settings: not given
Method: Inhibition of classical and alternative pathway activity by the peptides was measured. To determine the effect of peptides on the classical pathway, various concentrations of peptide were mixed with 11 μl of normal human serum (NHS, diluted 1:10 in GVB^++) and 5 μl of sheep erythrocytes coated with antibodies (EA) (1×10^9 /ml) and GVB^++ was added to give a total volume of 250 μl. The reaction mixture was incubated at 37° C. for 1 hour and centrifuged. The percentage of lysis was determined by measuring the optical density of the supernatant at 414 nm. The effect of peptides on the alternative pathway was determined by measuring the lysis of rabbit erythrocytes (Er) in NHS. Various concentrations of peptide were mixed with 5 μl of NHS, 5 μl of MgEGTA and 10 μl of Er (1×10^9 /ml) and brought to a final volume of 100 μl in GVB. The reaction mixture was incubated at 37° C. for 20 minutes and stopped by adding 200 μl of GVBE. After centrifugation, hemolysis was determined at 414 nm. The percentage of lysis was normalized by considering 100% lysis to be equal to the lysis occurring in the absence of the peptide.

Row | Molecule | activity in hemolytic assay
1 | ICVVQDWGHHRCTAGHYY [SEQ ID NO: 23, peptide of the invention containing tyrosine residues at its C-terminus] | equal activity to Peptide IV

target: alternative pathway of complement activation (Homo sapiens, UniProt P01024); assay: Hemolytic assay, alternative pathway: lysis of rabbit erythrocytes in normal human serum with MgEGTA; format: cell-based; settings: read-out: ALTERNATIVE PATHWAY IC50
Method: Inhibition of the alternative pathway was measured by using rabbit erythrocytes in the presence of MgEGTA (FIG. 3A); inhibition of lysis of antibody-coated sheep erythrocytes was used as an indicator of inhibition of the classical pathway (FIG. 3B).
Inhibition of classical and alternative pathway activity by the peptides was measured. […] The reaction mixture was incubated at 37° C. for 1 hour and centrifuged. […] The effect of peptides on the alternative pathway was determined by measuring the lysis of rabbit erythrocytes (Er) in NHS. Various concentrations of peptide were mixed with 5 μl of NHS, 5 μl of MgEGTA and 10 μl of Er (1×10^9 /ml) and brought to a final volume of 100 μl in GVB. The reaction mixture was incubated at 37° C. for 20 minutes and stopped by adding 200 μl of GVBE. […] The percentage of lysis was normalized by considering 100% lysis to be equal to the lysis occurring in the absence of the peptide.

Chain of alternative pathway of complement activation (P01024 23-1663): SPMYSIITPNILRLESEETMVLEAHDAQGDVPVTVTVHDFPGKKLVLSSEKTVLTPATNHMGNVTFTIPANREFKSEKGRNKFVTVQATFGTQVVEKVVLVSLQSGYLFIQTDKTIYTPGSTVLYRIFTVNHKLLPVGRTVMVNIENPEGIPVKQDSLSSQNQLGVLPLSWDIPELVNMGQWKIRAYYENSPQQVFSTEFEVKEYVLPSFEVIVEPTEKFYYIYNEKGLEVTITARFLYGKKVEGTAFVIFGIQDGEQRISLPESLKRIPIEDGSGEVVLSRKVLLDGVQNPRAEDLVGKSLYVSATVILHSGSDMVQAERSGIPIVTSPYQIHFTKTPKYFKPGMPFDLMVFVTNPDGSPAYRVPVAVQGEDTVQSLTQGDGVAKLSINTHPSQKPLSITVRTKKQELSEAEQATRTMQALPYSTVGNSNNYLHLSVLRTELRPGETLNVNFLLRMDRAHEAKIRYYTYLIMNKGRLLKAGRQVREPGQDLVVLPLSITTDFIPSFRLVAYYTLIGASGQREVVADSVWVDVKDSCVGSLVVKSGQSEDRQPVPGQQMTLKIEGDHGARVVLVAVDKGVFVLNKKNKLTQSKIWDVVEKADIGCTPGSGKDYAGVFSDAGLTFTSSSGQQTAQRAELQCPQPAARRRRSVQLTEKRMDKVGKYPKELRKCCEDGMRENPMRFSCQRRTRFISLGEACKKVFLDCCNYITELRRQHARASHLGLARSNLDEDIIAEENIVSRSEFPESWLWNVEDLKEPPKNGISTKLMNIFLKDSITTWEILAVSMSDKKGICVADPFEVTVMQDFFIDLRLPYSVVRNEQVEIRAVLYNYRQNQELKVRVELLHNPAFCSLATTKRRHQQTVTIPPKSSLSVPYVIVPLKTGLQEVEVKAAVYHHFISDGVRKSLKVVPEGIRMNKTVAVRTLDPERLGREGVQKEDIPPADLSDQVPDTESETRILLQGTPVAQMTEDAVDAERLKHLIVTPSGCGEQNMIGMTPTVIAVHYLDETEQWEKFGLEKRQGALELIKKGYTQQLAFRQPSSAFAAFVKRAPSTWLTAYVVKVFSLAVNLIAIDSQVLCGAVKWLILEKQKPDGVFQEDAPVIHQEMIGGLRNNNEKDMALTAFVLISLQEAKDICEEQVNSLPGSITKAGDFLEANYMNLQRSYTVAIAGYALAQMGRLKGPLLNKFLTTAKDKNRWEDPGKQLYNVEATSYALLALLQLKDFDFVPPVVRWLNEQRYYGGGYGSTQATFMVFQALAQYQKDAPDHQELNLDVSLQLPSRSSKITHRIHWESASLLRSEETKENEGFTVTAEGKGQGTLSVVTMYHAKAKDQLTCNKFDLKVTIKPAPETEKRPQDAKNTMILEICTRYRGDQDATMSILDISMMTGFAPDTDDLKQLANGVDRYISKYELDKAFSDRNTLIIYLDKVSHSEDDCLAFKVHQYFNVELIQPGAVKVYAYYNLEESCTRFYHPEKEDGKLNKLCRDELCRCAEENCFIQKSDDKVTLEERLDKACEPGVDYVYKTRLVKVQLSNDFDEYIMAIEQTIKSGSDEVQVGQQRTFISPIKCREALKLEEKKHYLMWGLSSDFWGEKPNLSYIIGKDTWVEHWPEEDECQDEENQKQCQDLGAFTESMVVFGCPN

Row | Molecule | IC50 [µM]
2 | CC[C@H](C)[C@H](N)C(=O)N[C@@H](CSCC(N)=O)C(=O)N[C@H](C(=O)N[C@H](C(=O)N[C@@H](CCC(N)=O)C(=O)N[C@@H](CC(=O)O)C(=O)N[C@@H](Cc1c[nH]c2ccccc12)C(=O)NCC(=O)N[C@@H](Cc1c[nH]cn1)C(=O)N[C@@H](Cc1c[nH]cn1)C(=O)N[C@@H](CCCNC(=N)N)C(=O)N[C@@H](CSCC(N)=O)C(=O)N[C@H](C(=O)N[C@@H](C)C(=O)NCC(=O)N[C@@H](Cc1c[nH]cn1)C(=O)N[C@@H](CCSC)C(=O)N[C@@H](C)C(=O)N[C@@H](CC(N)=O)C(=O)N[C@@H](CC(C)C)C(=O)N[C@H](C(=O)N[C@@H](CO)C(=O)N[C@@H](Cc1c[nH]cn1)C(=O)N[C@@H](C)C(=O)N[C@@H](CO)C(=O)N[C@@H](C)C(=O)N[C@H](C(N)=O)[C@@H](C)CC)[C@@H](C)O)[C@@H](C)O)C(C)C)C(C)C [II] (H-IC(Cam)VVQDWGHHRC(Cam)TAGHMANLTSHASAI-NH2) | > 300
3 | C[C@@H](O)[C@H](NC(=O)[C@@H]1CSSC[C@H](N)C(=O)N[C@@H](Cc2c[nH]c3ccccc23)C(=O)NCC(=O)N[C@@H](Cc2c[nH]cn2)C(=O)N[C@@H](Cc2c[nH]cn2)C(=O)N[C@@H](CCCNC(=N)N)C(=O)N1)C(N)=O [IX] (H-CWGHHRCT-NH2; disulfide 1-7) | > 600
4 | CC[C@H](C)[C@H](N)C(=O)N[C@@H](CSCC(N)=O)C(=O)N[C@H](C(=O)N[C@H](C(=O)N[C@@H](CCC(N)=O)C(=O)N[C@@H](CC(=O)O)C(=O)N[C@@H](Cc1c[nH]c2ccccc12)C(=O)NCC(=O)N[C@@H](Cc1c[nH]cn1)C(=O)N[C@@H](Cc1c[nH]cn1)C(=O)N[C@@H](CCCNC(=N)N)C(=O)N[C@@H](CSCC(N)=O)C(=O)N[C@H](C(N)=O)[C@@H](C)O)C(C)C)C(C)C [Peptide V] | > 300
5 | C[C@@H](O)[C@H](NC(=O)[C@@H]1CSSC[C@H](N)C(=O)NCC(=O)N[C@@H](Cc2c[nH]cn2)C(=O)N[C@@H](Cc2c[nH]cn2)C(=O)N[C@@H](CCCNC(=N)N)C(=O)N1)C(N)=O [VIII] (H-CGHHRCT-NH2; disulfide 1-6) | > 600
6 | C[C@@H](O)[C@H](NC(=O)[C@@H]1CSSC[C@H](N)C(=O)N[C@@H](Cc2c[nH]cn2)C(=O)N[C@@H](Cc2c[nH]cn2)C(=O)N[C@@H](CCCNC(=N)N)C(=O)N1)C(N)=O [VII] (H-CHHRCT-NH2; disulfide 1-5) | > 600
7 | CC(C)[C@@H]1NC(=O)[C@H](C(C)C)NC(=O)[C@@H](N)CSSC[C@@H](C(N)=O)NC(=O)[C@H](Cc2c[nH]c3ccccc23)NC(=O)[C@H](CC(=O)O)NC(=O)[C@H](CCC(N)=O)NC1=O [XIII] (H-CVVQDWC-NH2; disulfide 1-7) | > 600
8 | CC(C)[C@@H]1NC(=O)[C@@H](N)CSSC[C@@H](C(=O)N[C@H](C(N)=O)[C@@H](C)O)NC(=O)[C@H](CCCNC(=N)N)NC(=O)[C@H](Cc2c[nH]cn2)NC(=O)[C@H](Cc2c[nH]cn2)NC(=O)CNC(=O)[C@H](Cc2c[nH]c3ccccc23)NC(=O)[C@H](CC(=O)O)NC(=O)[C@H](CCC(N)=O)NC1=O [XII] (H-CVQDWGHHRCT-NH2; disulfide 1-10) | > 600
9 | CC(C)[C@@H]1NC(=O)[C@H](C(C)C)NC(=O)[C@@H](N)CSSC[C@@H](C(N)=O)NC(=O)[C@H](Cc2c[nH]cn2)NC(=O)CNC(=O)[C@H](Cc2c[nH]c3ccccc23)NC(=O)[C@H](CC(=O)O)NC(=O)[C@H](CCC(N)=O)NC1=O [XIV] (H-CVVQDWGHC-NH2; disulfide 1-9) | > 600
10 | CC(C)[C@@H]1NC(=O)[C@H](C(C)C)NC(=O)[C@@H](N)CSSC[C@@H](C(N)=O)NC(=O)[C@H](CCCNC(=N)N)NC(=O)[C@H](Cc2c[nH]cn2)NC(=O)[C@H](Cc2c[nH]cn2)NC(=O)CNC(=O)[C@H](C)NC(=O)[C@H](CC(=O)O)NC(=O)[C@H](CCC(N)=O)NC1=O [XIX] (H-CVVQDAGHHRC-NH2; disulfide 1-11) | 182
11 | C[C@@H](O)[C@H](NC(=O)[C@@H]1CSSC[C@H](N)C(=O)N[C@@H](CCC(N)=O)C(=O)N[C@@H](CC(=O)O)C(=O)N[C@@H](Cc2c[nH]c3ccccc23)C(=O)NCC(=O)N[C@@H](Cc2c[nH]cn2)C(=O)N[C@@H](Cc2c[nH]cn2)C(=O)N[C@@H](CCCNC(=N)N)C(=O)N1)C(N)=O [XI] (H-CQDWGHHRCT-NH2; disulfide 1-9) | > 600
12 | CC(C)[C@@H]1NC(=O)[C@H](C(C)C)NC(=O)[C@@H](N)CSSC[C@@H](C(N)=O)NC(=O)[C@H](C)NC(=O)[C@H](Cc2c[nH]cn2)NC(=O)[C@H](Cc2c[nH]cn2)NC(=O)CNC(=O)[C@H](Cc2c[nH]c3ccccc23)NC(=O)[C@H](CC(=O)O)NC(=O)[C@H](CCC(N)=O)NC1=O [XXIII] (H-CVVQDWGHHAC-NH2; disulfide 1-11) | 70
13 | C[C@@H](O)[C@H](NC(=O)[C@@H]1CSSC[C@H](N)C(=O)N[C@@H](CC(=O)O)C(=O)N[C@@H](Cc2c[nH]c3ccccc23)C(=O)NCC(=O)N[C@@H](Cc2c[nH]cn2)C(=O)N[C@@H](Cc2c[nH]cn2)C(=O)N[C@@H](CCCNC(=N)N)C(=O)N1)C(N)=O [X] (H-CDWGHHRCT-NH2; disulfide 1-8) | > 600

same assay, conditions: read-out: A[…] IC50

Row | Molecule | IC50 [µM]
14 | CC(C)[C@@H]1NC(=O)[C@H](C(C)C)NC(=O)[C@@H](N)CSSC[C@@H](C(N)=O)NC(=O)[C@H](CCCNC(=N)N)NC(=O)[C@H](Cc2c[nH]cn2)NC(=O)[C@H](Cc2c[nH]cn2)NC(=O)CNC(=O)[C@H](Cc2c[nH]c3ccccc23)NC(=O)[C@H](CC(=O)O)NC(=O)[C@H](CCC(N)=O)NC1=O [VI] (H-CVVQDWGHHRC-NH2; disulfide 1-11) | 33
15 | CC(C)[C@@H]1NC(=O)[C@H](C(C)C)NC(=O)[C@@H](N)CSSC[C@@H](C(N)=O)NC(=O)[C@H](CCCNC(=N)N)NC(=O)[C@H](Cc2c[nH]cn2)NC(=O)[C@H](Cc2c[nH]cn2)NC(=O)CNC(=O)[C@H](Cc2c[nH]c3ccccc23)NC(=O)[C@H](C)NC(=O)[C@H](CCC(N)=O)NC1=O [XVIII] (H-CVVQAWGHHRC-NH2; disulfide 1-11) | 257
16 | CC(C)[C@@H]1NC(=O)[C@H](C(C)C)NC(=O)[C@@H](N)CSSC[C@@H](C(N)=O)NC(=O)[C@H](CCCNC(=N)N)NC(=O)[C@H](Cc2c[nH]cn2)NC(=O)[C@H](Cc2c[nH]cn2)NC(=O)CNC(=O)[C@H](Cc2c[nH]c3ccccc23)NC(=O)[C@H](CC(=O)O)NC(=O)[C@H](C)NC1=O [XVII] (H-CVVADWGHHRC-NH2; disulfide 1-11) | 910
17 | CC(C)[C@@H]1NC(=O)[C@@H](N)CSSC[C@@H](C(N)=O)NC(=O)[C@H](CCCNC(=N)N)NC(=O)[C@H](Cc2c[nH]cn2)NC(=O)[C@H](Cc2c[nH]cn2)NC(=O)CNC(=O)[C@H](Cc2c[nH]c3ccccc23)NC(=O)[C@H](CC(=O)O)NC(=O)[C@H](CCC(N)=O)NC(=O)[C@H](C)NC1=O [XVI] (H-CVAQDWGHHRC-NH2; disulfide 1-11) | 67
18 | CC(C)[C@@H]1NC(=O)[C@H](C)NC(=O)[C@@H](N)CSSC[C@@H](C(N)=O)NC(=O)[C@H](CCCNC(=N)N)NC(=O)[C@H](Cc2c[nH]cn2)NC(=O)[C@H](Cc2c[nH]cn2)NC(=O)CNC(=O)[C@H](Cc2c[nH]c3ccccc23)NC(=O)[C@H](CC(=O)O)NC(=O)[C@H](CCC(N)=O)NC1=O [XV] (H-CAVQDWGHHRC-NH2; disulfide 1-11) | 1200
19 | CC(C)[C@@H]1NC(=O)[C@H](C(C)C)NC(=O)[C@@H](N)CSSC[C@@H](C(N)=O)NC(=O)[C@H](CCCNC(=N)N)NC(=O)[C@H](C)NC(=O)[C@H](Cc2c[nH]cn2)NC(=O)CNC(=O)[C@H](Cc2c[nH]c3ccccc23)NC(=O)[C@H](CC(=O)O)NC(=O)[C@H](CCC(N)=O)NC1=O [XXII] (H-CVVQDWGHARC-NH2; disulfide 1-11) | 74
20 | CC(C)[C@@H]1NC(=O)[C@H](C(C)C)NC(=O)[C@@H](N)CSSC[C@@H](C(N)=O)NC(=O)[C@H](CCCNC(=N)N)NC(=O)[C@H](Cc2c[nH]cn2)NC(=O)[C@H](C)NC(=O)CNC(=O)[C@H](Cc2c[nH]c3ccccc23)NC(=O)[C@H](CC(=O)O)NC(=O)[C@H](CCC(N)=O)NC1=O [XXI] (H-CVVQDWGAHRC-NH2; disulfide 1-11) | 15
21 | CC(C)[C@@H]1NC(=O)[C@H](C(C)C)NC(=O)[C@@H](N)CSSC[C@@H](C(N)=O)NC(=O)[C@H](CCCNC(=N)N)NC(=O)[C@H](Cc2c[nH]cn2)NC(=O)[C@H](Cc2c[nH]cn2)NC(=O)[C@H](C)NC(=O)[C@H](Cc2c[nH]c3ccccc23)NC(=O)[C@H](CC(=O)O)NC(=O)[C@H](CCC(N)=O)NC1=O [XX] (H-CVVQDWAHHRC-NH2; disulfide 1-11) | > 1200
